Test systems include 786-0 renal; NCI/ADR-RES ovarian; NCI-H460 lung; DU-145 prostate; CCRF-CEM leukemia; COLO 205 colon; RXF 393 renal; CAKI-1 renal; U251 CNS; SF-295 CNS.
Common to all, as to assay: growth of human tumour cells (NCI), 48 h

10 compounds from PubChem BioAssay (NCI) can be followed below.

Several values for one entry are separate records, joined by “and”; a condition that tells them apart may be missing. Equal entries are not always repeated.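 Following 48 hours of exposure in 96-well plates, responses at five concentrations were used to interpolate endpoints linearly. GI50 is the concentration that inhibits growth by half. TGI is the concentration that stops growth completely.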

For the compound `COc1ccc(/C=C/C(=O)c2ccc(OC)c(OC)c2)cc1O`, the GI50 was 14.2 µM with 786-0 renal; 3.88 µM in the assay with NCI/ADR-RES ovarian; 3.44 µM with NCI-H460 lung; 2.34 µM in the assay with DU-145 prostate; 3.51 µM in the assay with CCRF-CEM leukemia; 12.5 µM with COLO 205 colon. Besides, the results for the GI50 with RXF 393 renal, in the assay with CAKI-1 renal and in the assay with U251 CNS were 2.63 µM, 18.1 µM and 3.59 µM, respectively. For the same compound, the TGI in the assay with 786-0 renal amounted to 65.8 µM; in the assay on NCI/ADR-RES ovarian, 49.1 µM; with NCI-H460 lung it was 11.8 µM; with DU-145 prostate, 5.64 µM; with CCRF-CEM leukemia, 23.9 µM; with COLO 205 colon, 25 µM. Moreover, the results for the TGI with RXF 393 renal, in the assay with CAKI-1 renal and in the assay on U251 CNS were 7.62 µM, more than 100 µM and 14.6 µM, respectively.

Consider `OCc1ccc(N2CCc3ccccc3C2)cc1Cl`, for which the GI50 is 16.6 µM with 786-0 renal; 5.13 µM with NCI/ADR-RES ovarian; less than 0.0179 µM in the assay on NCI-H460 lung; 2.38 µM with DU-145 prostate; 27.3 µM in the assay with CCRF-CEM leukemia; 0.0136 µM with COLO 205 colon. Also, the GI50 is 13.5 µM with RXF 393 renal, 0.568 µM with CAKI-1 renal and less than 0.0292 µM with U251 CNS. Also, the TGI in the assay with 786-0 renal was determined as 51.7 µM; in the assay on NCI/ADR-RES ovarian, 39.8 µM; with NCI-H460 lung, 0.174 µM; in the assay with DU-145 prostate, 22.3 µM; in the assay on CCRF-CEM leukemia, 99.6 µM; in the assay with COLO 205 colon it was 0.0619 µM. Besides, the figures for the TGI in the assay on RXF 393 renal, in the assay on CAKI-1 renal and in the assay with U251 CNS were 28.8 µM, 14.1 µM and more than 44.5 µM, respectively.

Consider `Cc1c(O)c2c(c(O)c1Br)C(=O)C=CC2=O`, for which the GI50 was 1.46 µM with 786-0 renal; 2.4 µM with NCI/ADR-RES ovarian; 1.82 µM in the assay with DU-145 prostate; 0.334 µM in the assay on COLO 205 colon; 0.229 µM with RXF 393 renal; 0.16 µM with CAKI-1 renal. For the same compound, the GI50 with SF-295 CNS is 14 µM. Also, the TGI in the assay on 786-0 renal is 0.428 µM and 3.02 µM; in the assay on NCI/ADR-RES ovarian, 1.66 µM and 7.1 µM; in the assay with NCI-H460 lung it was 2.74 µM; in the assay on DU-145 prostate, 2.85 µM and 3.24 µM; in the assay on COLO 205 colon it was 0.428 µM and 1.45 µM; in the assay on RXF 393 renal, 2.72 µM and 0.582 µM. Moreover, the TGI in the assay with CAKI-1 renal is 0.894 µM and 0.382 µM; with SF-295 CNS, 3.15 µM and 28.2 µM; with U251 CNS, 3.09 µM and 3.99 µM.

With `CCOc1cccc(-c2nc(N)nc(Nc3ccccc3SSc3ccccc3Nc3nc(N)nc(-c4cccc(OCC)c4)n3)n2)c1`, the GI50 with 786-0 renal was 5.03 µM; in the assay on NCI/ADR-RES ovarian, 3.32 µM; in the assay on NCI-H460 lung it was 3.03 µM; in the assay on DU-145 prostate it was 7.5 µM; in the assay with CCRF-CEM leukemia it was 2.2 µM; in the assay on COLO 205 colon, 35.8 µM. The values for the GI50 with RXF 393 renal, in the assay on CAKI-1 renal and in the assay with SF-295 CNS were 2.86 µM, 3.29 µM and 3.92 µM, respectively. Moreover, the TGI in the assay with 786-0 renal was 69.7 µM; with NCI/ADR-RES ovarian, more than 100 µM; with NCI-H460 lung it was more than 100 µM; in the assay with DU-145 prostate, more than 100 µM; with CCRF-CEM leukemia it was more than 100 µM; in the assay on COLO 205 colon it was more than 100 µM. The TGI was 8.75 µM with RXF 393 renal, 28.3 µM in the assay with CAKI-1 renal and more than 100 µM in the assay with SF-295 CNS.

As to `Cn1c(/C=C/[N+](=O)[O-])cc2ccccc21`, the GI50 with 786-0 renal is 2.15 µM; with NCI/ADR-RES ovarian, 6.45 µM; in the assay on NCI-H460 lung it was 3.77 µM; with DU-145 prostate, 1.65 µM; with CCRF-CEM leukemia it was 16.9 µM; with COLO 205 colon, 1.88 µM. For the same compound, the GI50 was 1.66 µM in the assay on RXF 393 renal, 5.84 µM in the assay with SF-295 CNS and 1.73 µM in the assay on U251 CNS. Moreover, the TGI was 4.08 µM in the assay with 786-0 renal; 92.5 µM with NCI/ADR-RES ovarian; 20.9 µM in the assay with NCI-H460 lung; 3.21 µM with DU-145 prostate; more than 100 µM with CCRF-CEM leukemia; 3.69 µM in the assay with COLO 205 colon. In addition, the TGI in the assay on RXF 393 renal is 3.08 µM; in the assay on SF-295 CNS, more than 100 µM; in the assay with U251 CNS, 3.75 µM.

Consider `COc1ccc(C2=NN(C(=O)c3cc(OC)c(OC)c(OC)c3)C(c3ccc(N(C)C)cc3)C2)cc1` (stereo unspecified), for which the GI50 in the assay with 786-0 renal was 0.295 µM; in the assay on NCI/ADR-RES ovarian it was 0.379 µM; in the assay with NCI-H460 lung, 0.397 µM; with DU-145 prostate it was 1.74 µM; in the assay with CCRF-CEM leukemia it was 1.8 µM; in the assay on RXF 393 renal, 0.252 µM. For the same compound, the GI50 in the assay on SF-295 CNS was 0.339 µM; with U251 CNS, 0.473 µM. The TGI was more than 23.7 µM in the assay on DU-145 prostate; more than 27.1 µM in the assay with CCRF-CEM leukemia; 0.723 µM in the assay on RXF 393 renal; 40.4 µM in the assay with SF-295 CNS; more than 100 µM with U251 CNS.

`NCOC(=O)Cc1ccc(Br)cc1`: the TGI in the assay with 786-0 renal, with NCI/ADR-RES ovarian, in the assay with NCI-H460 lung, with DU-145 prostate, in the assay with CCRF-CEM leukemia and with COLO 205 colon was more than 100 µM throughout. For the same compound, the TGI in the assay with RXF 393 renal, in the assay on SF-295 CNS and in the assay with U251 CNS was more than 100 µM throughout.

On to `O=C1c2cc([N+](=O)[O-])ccc2-c2ccc3c4ccc5c6c(ccc(c7ccc1c2c73)c64)C(=O)c1cc([N+](=O)[O-])ccc1-5`, for which the TGI in the assay with 786-0 renal, in the assay on NCI/ADR-RES ovarian, in the assay with DU-145 prostate, in the assay on CCRF-CEM leukemia, in the assay with COLO 205 colon and in the assay with RXF 393 renal was more than 100 µM throughout. In addition, the TGI in the assay on CAKI-1 renal, with SF-295 CNS and with U251 CNS was more than 100 µM each time.

For `CN(Cc1cc(Cl)cc(Cl)c1O)Cc1c(O)ccc2ccccc12`, the TGI in the assay with 786-0 renal was 48.4 µM; in the assay with NCI/ADR-RES ovarian it was 42.5 µM; with NCI-H460 lung, 35.1 µM; in the assay on DU-145 prostate, 46.2 µM; in the assay on COLO 205 colon it was 32 µM; in the assay with RXF 393 renal, 33.6 µM. The TGI came to 33.8 µM in the assay with CAKI-1 renal, 36.1 µM in the assay on SF-295 CNS and 30.4 µM with U251 CNS.

Regarding `COc1ccc(Nc2cc(C)nc(NCCCNc3ccnc4cc(Cl)ccc34)n2)cc1`, the GI50 was 1.67 µM with 786-0 renal; 2.38 µM with NCI/ADR-RES ovarian; 1.78 µM in the assay on NCI-H460 lung; 3.4 µM in the assay on DU-145 prostate; 1.31 µM with CCRF-CEM leukemia; 1.58 µM with COLO 205 colon. In addition, the figures for the GI50 in the assay on CAKI-1 renal, in the assay on SF-295 CNS and in the assay with U251 CNS were 1.5 µM, 1.34 µM and 1.39 µM, respectively. Also, the TGI with 786-0 renal came to 3.26 µM; with NCI/ADR-RES ovarian, 6.27 µM; in the assay on NCI-H460 lung, 3.8 µM; in the assay with DU-145 prostate, 10.7 µM; in the assay with CCRF-CEM leukemia, 6.49 µM; in the assay on COLO 205 colon, 3.22 µM. The TGI was found to be 2.87 µM in the assay on CAKI-1 renal, 2.73 µM with SF-295 CNS and 2.8 µM in the assay on U251 CNS.
